System: cardiac allograft rejection
Test: Heart transplant rejection mouse model (C57/BL6 heart into Balb/c recipient, total MHC mismatch)
Assay type: in vivo, mice
Details: Compound 1 alone, 75 mg/kg/day for fourteen days following surgery; untreated controls rejected after ten days; p<0.001
Experimental: The ability of a combination therapy of rapamycin and Compound 1 to inhibit transplant rejection in a mouse model was tested. […] Following surgery, the mice were divided into the following treatment groups: • Group I is a control group that was untreated. • Group II was treated with Compound 1 at a dose of 75 mg/kg/day subcutaneously for fourteen days following surgery. • Group III was treated with rapamycin at a dose of 0.3 mg/kg/day intraperitoneally for three days following surgery. • Group IV was treated with Compound 1 at a dose of 75 mg/kg/day intraperitoneally for fourteen days following surgery and with rapamycin at a dose of 0.3 mg/kg/day intraperitoneally for three days following surgery.

## N#Cc1cccc(C(C(=O)NCC(c2ccccc2)c2ccccc2)N(CCc2c[nH]cn2)C(=O)c2ccccc2C(=O)c2ccccc2)c1 (stereo not shown) [Compound 1]
  delay in the onset of rejection: two to three

From US20100233158A1, “INDUCTION OF IMMUNE TOLERANCE” (Genzyme Corporation, priority 2002, published 2010)
